Assay results taken from ChEMBL document CHEMBL4396913, “Synthesis and biological evaluation of hybrid quinolone-based quaternary ammonium antibacterial agents” (Eur J Med Chem, 2019).
Activity calls are given as the source filed them. No cut-off for these calls is given here.

Experiments:
Proteus vulgaris = assay: Bactericidal activity against Proteus vulgaris NCTC 4635 cultured in MH medium assessed as reduction in bacterial survival incubated for 48 hrs by microbroth dilution method; format: functional; conditions: NCTC 4635, 48 h
Pseudomonas aeruginosa [1] = assay: Bactericidal activity against Pseudomonas aeruginosa ATCC 9027 cultured in MH medium assessed as reduction in bacterial survival incubated for 48 hrs by microbroth dilution method; format: functional; conditions: ATCC 9027, 48 h
[2] = tested on: Staphylococcus epidermidis; assay: Antibacterial activity against Staphylococcus epidermidis ATCC 14990 cultured in MH medium assessed as reduction in bacterial growth incubated for 48 hrs by microbroth dilution method; format: functional; conditions: ATCC 14990, 48 h
[3] = biological target: T1, DNA gyrase (Escherichia coli) (UniProt P0AES6+P0AES4); assay: Inhibition of Escherichia coli DNA gyrase super-coiling activity using relaxed pNO1 DNA as substrate assessed as enzyme residual activity at 1 uM incubated for 30 mins by fluorescence assay relative to control; format: protein-complex assay
Streptococcus pneumoniae [4] = assay: Antibacterial activity against Streptococcus pneumoniae cultured in MH medium assessed as reduction in bacterial growth incubated for 48 hrs by microbroth dilution method; format: functional
Escherichia coli [5] = assay: Antibacterial activity against Escherichia coli ATCC 8739 cultured in MH medium assessed as reduction in bacterial growth incubated for 48 hrs by microbroth dilution method; format: functional; conditions: ATCC 8739, 48 h
Pseudomonas aeruginosa [6] = assay: Antibacterial activity against Pseudomonas aeruginosa ATCC 9027 cultured in MH medium assessed as reduction in bacterial growth incubated for 48 hrs by microbroth dilution method; format: functional; conditions: ATCC 9027, 48 h
[7] = biological target: T1, DNA gyrase (Escherichia coli); assay: Inhibition of Escherichia coli DNA gyrase super-coiling activity using relaxed pNO1 DNA as substrate assessed as enzyme residual activity at 10 uM incubated for 30 mins by fluorescence assay relative to control; format: protein-complex assay
Staphylococcus aureus [8] = assay: Antibiofilm activity against Staphylococcus aureus ATCC 25923 assessed as reduction in biofilm viability at 2.5 to 20 uM incubated for 24 hrs compound added prior to bacterial biofilm formation by resazurin staining based assay relative to control; format: functional
Staphylococcus aureus [9] = assay: Bactericidal activity against Staphylococcus aureus ATCC 6538 cultured in MH medium assessed as reduction in bacterial survival incubated for 48 hrs by microbroth dilution method; format: functional; conditions: ATCC 6538, 48 h
Staphylococcus aureus [10] = assay: Biofilm degradation activity against Staphylococcus aureus ATCC 6538 assessed as biofilm formation at antibacterial MIC incubated for 24 hrs compound added post-biofilm formation by total biomass crystal violet staining-based method; format: functional
Serratia marcescens [11] = assay: Bactericidal activity against Serratia marcescens ATCC 12795 cultured in MH medium assessed as reduction in bacterial survival incubated for 48 hrs by microbroth dilution method; format: functional; conditions: ATCC 12795, 48 h
Staphylococcus aureus [12] = assay: Biofilm degradation activity against Staphylococcus aureus ATCC 6538 assessed as biofilm formation at 2 times antibacterial MIC incubated for 24 hrs compound added post-biofilm formation by total biomass crystal violet staining-based method; format: functional
Staphylococcus aureus [13] = assay: Antibiofilm activity against Staphylococcus aureus ATCC 25923 assessed as reduction in biofilm biomass at >2.5 uM incubated for 24 hrs compound added prior to bacterial biofilm formation by crystal violet staining based assay; format: functional, organism-based
Staphylococcus aureus [14] = assay: Antibiofilm activity against Staphylococcus aureus ATCC 6538 assessed as biofilm formation at antibacterial MIC incubated for 24 hrs compound added prior to bacterial biofilm formation by total biomass crystal violet staining-based method relative to control; format: functional
Pseudomonas aeruginosa [15] = assay: Antibiofilm activity against Pseudomonas aeruginosa ATCC 9027 assessed as biofilm formation at antibacterial MIC incubated for 24 hrs compound added prior to bacterial biofilm formation by total biomass crystal violet staining-based method relative to control; format: functional
HEK293 [16] = assay: Cytotoxicity against human HEK293 cells assessed as changes in cell morphology upto 20 uM incubated for 72 hrs by MTT assay; format: cell-based; conditions: hek293, 72 h
Escherichia coli [17] = assay: Bactericidal activity against […] Escherichia coli ATCC 8739 assessed as reduction in bacterial survival incubated for 48 hrs in presence of 50 ug/ml […], PAbetaN by microbroth dilution method; format: functional; conditions: ATCC 8739, 48 h
Escherichia coli [18] = assay: Antibacterial activity against […] Escherichia coli ATCC 8739 assessed as reduction in bacterial growth incubated for 48 hrs in presence of 50 ug/ml […], PAbetaN by microbroth dilution method; format: functional; conditions: ATCC 8739, 48 h
Escherichia coli [19] = assay: Bactericidal activity against Escherichia coli ATCC 8739 cultured in MH medium assessed as reduction in bacterial survival incubated for 48 hrs by microbroth dilution method; format: functional; conditions: ATCC 8739, 48 h
[20] = tested on: Staphylococcus epidermidis; assay: Bactericidal activity against methicillin resistant Staphylococcus epidermidis ATCC 13199 cultured in MH medium assessed as reduction in bacterial survival incubated for 48 hrs by microbroth dilution method; format: functional; conditions: ATCC 13199, 48 h
Pseudomonas aeruginosa [21] = assay: Antibiofilm activity against Pseudomonas aeruginosa ATCC 9027 assessed as biofilm formation at 0.5 times antibacterial MIC incubated for 24 hrs compound added prior to bacterial biofilm formation by total biomass crystal violet staining-based method relative to control; format: functional
Streptococcus pneumoniae [22] = assay: Bactericidal activity against Streptococcus pneumoniae cultured in MH medium assessed as reduction in bacterial survival incubated for 48 hrs by microbroth dilution method; format: functional
Pseudomonas aeruginosa [23] = assay: Biofilm degradation activity against Pseudomonas aeruginosa ATCC 9027 assessed as biofilm formation at 2 times antibacterial MIC incubated for 24 hrs compound added post-biofilm formation by total biomass crystal violet staining-based method; format: functional
Staphylococcus aureus [24] = assay: Antibacterial activity against Staphylococcus aureus ATCC 6538 cultured in MH medium assessed as reduction in bacterial growth incubated for 48 hrs by microbroth dilution method; format: functional; conditions: ATCC 6538, 48 h
Staphylococcus aureus [25] = assay: Bactericidal activity against methicillin resistant Staphylococcus aureus 6347 cultured in MH medium assessed as reduction in bacterial survival incubated for 48 hrs by microbroth dilution method; format: functional; conditions: Staphylococcus aureus, 6347, 48 h
Bacillus spizizenii = assay: Antibacterial activity against Bacillus subtilis ATCC 6633 cultured in MH medium assessed as reduction in bacterial growth incubated for 48 hrs by microbroth dilution method; format: functional; conditions: ATCC 6633, 48 h
Staphylococcus aureus [26] = assay: Bactericidal activity against methicillin resistant Staphylococcus aureus N315 cultured in MH medium assessed as reduction in bacterial survival incubated for 48 hrs by microbroth dilution method; format: functional; conditions: N315, 48 h
HEK293 [27] = assay: Cytotoxicity against human HEK293 cells assessed as cell viability upto 20 uM incubated for 72 hrs by MTT assay; format: cell-based; conditions: hek293, 72 h
Staphylococcus aureus [28] = assay: Antibacterial activity against methicillin resistant Staphylococcus aureus N315 cultured in MH medium assessed as reduction in bacterial growth incubated for 48 hrs by microbroth dilution method; format: functional; conditions: N315, 48 h
Staphylococcus aureus [29] = assay: Antibiofilm activity against Staphylococcus aureus ATCC 6538 assessed as biofilm formation at 0.5 times antibacterial MIC incubated for 24 hrs compound added prior to bacterial biofilm formation by total biomass crystal violet staining-based method relative to control; format: functional
Serratia marcescens [30] = assay: Antibacterial activity against Serratia marcescens ATCC 12795 cultured in MH medium assessed as reduction in bacterial growth incubated for 48 hrs by microbroth dilution method; format: functional; conditions: ATCC 12795, 48 h
[31] = tested on: Staphylococcus epidermidis; assay: Bactericidal activity against Staphylococcus epidermidis ATCC 14990 cultured in MH medium assessed as reduction in bacterial survival incubated for 48 hrs by microbroth dilution method; format: functional; conditions: ATCC 14990, 48 h
[32] = Lipophilicity, log k of the compound at 100 ug/ml by micellar electrokinetic chromatography; format: physicochemical
Pseudomonas aeruginosa [33] = assay: Biofilm degradation activity against Pseudomonas aeruginosa ATCC 9027 assessed as biofilm formation at antibacterial MIC incubated for 24 hrs compound added post-biofilm formation by total biomass crystal violet staining-based method; format: functional

SMILES	MBC (Proteus vulgaris)	MBC (Pseudomonas aeruginosa [1])	MIC [2]	Activity [3]	MIC (Streptococcus pneumoniae [4])	MIC (Escherichia coli [5])	MIC (Pseudomonas aeruginosa [6])	Activity [7]	inhibition (INH) (Staphylococcus aureus [8])	MBC (Staphylococcus aureus [9])	Activity (Staphylococcus aureus [10])	MBC (Serratia marcescens [11])	Activity (Staphylococcus aureus [12])	inhibition (Staphylococcus aureus [13])	Activity (Staphylococcus aureus [14])	Activity (Pseudomonas aeruginosa [15])	Activity (HEK293 [16])	MBC (Escherichia coli [17])	MIC (Escherichia coli [18])	MBC (Escherichia coli [19])	also measured
CCn1cc(C(=O)O)c(=O)c2cc(F)c(N3CC[N+]4(CC3)CN3C(=N4)C(C(=O)O)=Cc4ccccc43)nc21.[Cl-]	0.5 µg/mL	1 µg/mL	4 µg/mL	100%	256 µg/mL	1 µg/mL	1 µg/mL	73%	100%	8 µg/mL	45%	16 µg/mL	21%	Active	18%	16%	Non-Toxic	1 µg/mL	0.5 µg/mL	2 µg/mL	MBC [20]: 2 µg/mL; Activity (Pseudomonas aeruginosa [21]): 52%; MBC (Streptococcus pneumoniae [22]): 512 µg/mL; Activity (Pseudomonas aeruginosa [23]): 43%; MIC (Staphylococcus aureus [24]): 8 µg/mL; MBC (Staphylococcus aureus [25]): 16 µg/mL; MIC (Bacillus spizizenii): 2 µg/mL; MBC (Staphylococcus aureus [26]): 8 µg/mL; Activity (HEK293 [27]): Non-Toxic; MIC (Staphylococcus aureus [28]): 8 µg/mL; Activity (Staphylococcus aureus [29]): 35%; MIC (Serratia marcescens [30]): 8 µg/mL; MBC [31]: 4 µg/mL; log K [32]: -0.2387; Activity (Pseudomonas aeruginosa [33]): 61%
O=C(O)C1=Cc2ccccc2N2C[N+]3(CCN(c4cc5c(cc4F)c(=O)c(C(=O)O)cn5C4CC4)CC3)N=C12.[Cl-]	0.063 µg/mL	2 µg/mL	2 µg/mL	97%	256 µg/mL	2 µg/mL	2 µg/mL	34%	100%	4 µg/mL	21%	2 µg/mL	28%	Active	6%	13%	Non-Toxic	0.5 µg/mL	0.25 µg/mL	2 µg/mL	MBC [20]: 1 µg/mL; Activity (Pseudomonas aeruginosa [21]): 26%; MBC (Streptococcus pneumoniae [22]): 512 µg/mL; Activity (Pseudomonas aeruginosa [23]): 39%; MIC (Staphylococcus aureus [24]): 4 µg/mL; MBC (Staphylococcus aureus [25]): 2 µg/mL; MIC (Bacillus spizizenii): 1 µg/mL; MBC (Staphylococcus aureus [26]): 4 µg/mL; Activity (HEK293 [27]): Non-Toxic; MIC (Staphylococcus aureus [28]): 4 µg/mL; Activity (Staphylococcus aureus [29]): 6%; MIC (Serratia marcescens [30]): 1 µg/mL; MBC [31]: 2 µg/mL; log K [32]: -0.1527; Activity (Pseudomonas aeruginosa [33]): 49%
CCn1cc(C(=O)O)c(=O)c2cc(F)c(N3CC[N+]4(CN5C(=N4)C(C(=O)O)=Cc4ccccc45)C(C)C3)c(F)c21.[Cl-] (stereo not given)	0.125 µg/mL	1 µg/mL	4 µg/mL	97%	512 µg/mL	0.25 µg/mL	1 µg/mL	11%	100%	2 µg/mL	60%	2 µg/mL	44%	Active	69%	53%	Non-Toxic	0.25 µg/mL	0.125 µg/mL	0.5 µg/mL	MBC [20]: 2 µg/mL; Activity (Pseudomonas aeruginosa [21]): 73%; MBC (Streptococcus pneumoniae [22]): 512 µg/mL; Activity (Pseudomonas aeruginosa [23]): 51%; MIC (Staphylococcus aureus [24]): 2 µg/mL; MBC (Staphylococcus aureus [25]): 16 µg/mL; MIC (Bacillus spizizenii): 0.5 µg/mL; MBC (Staphylococcus aureus [26]): 2 µg/mL; Activity (HEK293 [27]): Non-Toxic; MIC (Staphylococcus aureus [28]): 2 µg/mL; Activity (Staphylococcus aureus [29]): 47%; MIC (Serratia marcescens [30]): 2 µg/mL; MBC [31]: 4 µg/mL; log K [32]: -0.265; Activity (Pseudomonas aeruginosa [33]): 65%
